{
  "source": "PubChem BioAssay AID1259340",
  "about": "(Broad Institute, 2017)",
  "note": "The source made the active and inactive calls.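 How the source made its calls: active means AC50 no more than ten times the top concentration tested; inconclusive means flat fit with inhibition between 30% and 70%, or unusable fit; inactive means AC50 beyond ten times the top concentration.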",
  "data": [
    {"molecular_target": "Caspase recruitment domain-containing protein 9 (Homo sapiens) + B-cell lymphoma/leukemia 10 (Homo sapiens) (UniProt Q9H257+O95999)", "sequence (O95999 whole entry, looked up, the tested form may be a part)": "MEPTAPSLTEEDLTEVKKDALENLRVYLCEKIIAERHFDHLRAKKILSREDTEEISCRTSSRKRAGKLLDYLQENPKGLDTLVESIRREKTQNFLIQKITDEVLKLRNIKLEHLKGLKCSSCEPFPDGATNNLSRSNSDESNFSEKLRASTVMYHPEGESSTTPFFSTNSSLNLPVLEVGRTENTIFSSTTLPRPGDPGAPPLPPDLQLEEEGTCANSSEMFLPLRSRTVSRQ", "sequence (Q9H257 whole entry, looked up, the tested form may be a part)": "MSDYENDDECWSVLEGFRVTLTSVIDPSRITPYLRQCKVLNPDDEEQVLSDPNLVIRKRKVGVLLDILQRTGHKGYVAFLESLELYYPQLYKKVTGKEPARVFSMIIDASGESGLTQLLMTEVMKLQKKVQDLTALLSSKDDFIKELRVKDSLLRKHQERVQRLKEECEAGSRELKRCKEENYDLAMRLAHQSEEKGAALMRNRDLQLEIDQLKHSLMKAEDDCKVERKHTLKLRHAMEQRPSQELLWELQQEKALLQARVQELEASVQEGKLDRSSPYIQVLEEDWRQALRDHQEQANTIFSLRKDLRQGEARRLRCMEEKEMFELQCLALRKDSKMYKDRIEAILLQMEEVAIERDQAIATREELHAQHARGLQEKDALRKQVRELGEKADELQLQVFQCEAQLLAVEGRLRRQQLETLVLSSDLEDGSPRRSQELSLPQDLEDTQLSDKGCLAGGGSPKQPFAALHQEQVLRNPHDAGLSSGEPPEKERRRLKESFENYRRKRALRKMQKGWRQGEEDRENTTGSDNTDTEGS", "test": "disruptors of CARD9-BCL10 binding, dose response, selectivity assay for CARD9-TRIM62 disruptor project, cell lysate, HEK293FT lysates, Luminex bead ELISA (AID 1259340)", "details": "not given", "values": [
      {"smiles": "CC(=O)c1cccc(OCC(=O)N(C)CC(=O)NCc2ccco2)c1", "AC50": "> 160 µM (inactive)"},
      {"smiles": "O=C(Nc1nc(-c2ccco2)c(-c2ccco2)s1)c1ccc(F)cc1F", "AC50": "> 160 µM (inactive)"},
      {"smiles": "CC(=O)Nc1ccc(Nc2nc(-c3nnc(-c4cccc(C)c4)o3)nc3ccccc23)cc1", "AC50": "72.4 µM"},
      {"smiles": "O=C(Nc1nccs1)c1cc(-c2ccco2)nc2ccccc12", "AC50": "> 160 µM (inactive)"},
      {"smiles": "O=C(COc1cccnc1[N+](=O)[O-])c1ccc(Cl)s1", "AC50": "40 µM"},
      {"smiles": "O=C(Nc1nncs1)c1cc(-c2ccco2)nc2ccccc12", "AC50": "68.5 µM"},
      {"smiles": "O=C(O)C1Oc2cc3ccccc3cc2O1", "AC50": "> 160 µM (inactive)"},
      {"smiles": "Cc1nc(C)c(C(=O)Nc2ncc([N+](=O)[O-])s2)o1", "AC50": "66 µM"},
      {"smiles": "O=C(O)c1ccc2nc(-c3ccco3)c(-c3ccco3)nc2c1", "AC50": "19.6 µM"},
      {"smiles": "O=C(Nc1nccs1)c1cc(-c2ccccn2)nc2c(Cl)cccc12", "AC50": "41.1 µM"},
      {"smiles": "O=S(=O)(c1ccc2nc(-c3ccco3)c(-c3ccco3)nc2c1)N1CCOCC1", "AC50": "20.3 µM"},
      {"smiles": "O=C(NCc1ccco1)c1c2c(nc3ccccc13)CCC2", "AC50": "> 160 µM (inactive)"},
      {"smiles": "c1ccc(-c2nc(-c3ccco3)n3ccccc23)cc1", "AC50": "> 160 µM (inactive)"}
    ]},
    {"molecular_target": "Caspase recruitment domain-containing protein 9 (Homo sapiens) + B-cell lymphoma/leukemia 10 (Homo sapiens) (UniProt Q9H257+O95999)", "test": "disruptors of CARD9-BCL10 binding, dose response, selectivity assay for CARD9-TRIM62 disruptor project, cell lysate, HEK293FT lysates, Luminex bead ELISA (AID 1259340)", "details": "at 80 µM (top of the series)", "values": [
      {"smiles": "Cc1c(C(=O)OCC2CCCO2)[nH]c2c1C(=O)CC(c1ccco1)C2", "note": "(stereo unspecified)", "activity change, negative = inhibition": "inactive"},
      {"smiles": "O=C(COC(=O)c1cc(-c2ccco2)nc2ccccc12)NCc1ccccc1", "activity change, negative = inhibition": "inactive"},
      {"smiles": "NC(=O)C1(N2CCCCC2)CCN(c2ccc(NC(=O)c3ccccc3F)cc2C(=O)O)CC1", "activity change, negative = inhibition": "inactive"},
      {"smiles": "O=S(=O)(c1ccccc1)N1CC2CN(Cc3ccc(O)cc3)C2C1", "note": "(stereo unspecified)", "activity change, negative = inhibition": "inactive"},
      {"smiles": "O=C(NCCc1ccccc1)c1cc2cccnc2n(Cc2ccccc2)c1=O", "activity change, negative = inhibition": "inactive"},
      {"smiles": "C[C@H](CO)N1C[C@H](C)[C@@H](CN(C)CC2CCCCC2)OCCCC[C@H](C)Oc2ccc(NS(C)(=O)=O)cc2C1=O", "activity change, negative = inhibition": "inactive"},
      {"smiles": "Cc1ccc(C(=O)Nc2cnc(N3CCC(C(N)=O)(N4CCCCC4)CC3)c(C(=O)O)c2)cc1", "activity change, negative = inhibition": "inactive"},
      {"smiles": "CC(C)C(CC(=O)NCc1ccco1)c1ccco1", "note": "(stereo unspecified)", "activity change, negative = inhibition": "inactive"},
      {"smiles": "O=C(Cn1c(=O)cc(C(=O)N2CCc3ccccc3C2)c2ccccc21)NCc1ccc2c(c1)OCO2", "activity change, negative = inhibition": "inactive"},
      {"smiles": "O=C(O)COc1ccc(-n2cccc2)cc1", "activity change, negative = inhibition": "inactive"},
      {"smiles": "O=C(NCCCN1CCOCC1)c1cc(-c2ccco2)nc2ccccc12", "activity change, negative = inhibition": "inactive"},
      {"smiles": "N#CNc1nc(O)cc(=O)[nH]1", "activity change, negative = inhibition": "inactive"},
      {"smiles": "c1coc(-c2cn3ccc4ccccc4c3n2)c1", "activity change, negative = inhibition": "inactive"},
      {"smiles": "CCCN1CCCn2nc(CNC(=O)[C@@H](N)Cc3ccc(O)cc3)cc2C1", "activity change, negative = inhibition": "inactive"},
      {"smiles": "NC(=O)C1(N2CCCCC2)CCN(c2ncc(NC(=O)c3cccs3)cc2C(=O)O)CC1", "activity change, negative = inhibition": "inactive"},
      {"smiles": "CC(=O)c1ccc(NC(=O)c2noc3c2CCC3)cc1", "activity change, negative = inhibition": "inactive"},
      {"smiles": "COCCC(=O)N1CCCC2(CCN(CCN3CCCC3)C2=O)C1", "note": "(stereo unspecified)", "activity change, negative = inhibition": "inactive"},
      {"smiles": "CC1CCN(c2nc(-c3ccco3)c3c(c2C#N)CC(C)(C)OC3)CC1", "activity change, negative = inhibition": "inactive"}
    ]}
  ]
}
